Results published in US9789096B2, “Methods and compositions for selective and targeted cancer therapy” (Board of Regents of the University of Texas System, priority 2013, dated 2017).
Where two headings read alike, the source gives them in different places.

Key:
[1] = test system: H1155; assay: Cell viability dose-response, H1155; assay type: cell-based; conditions: Homo sapiens, NCI-H1155
Experimental: (§1) FIG. 6A. […] Cell viability is plotted vs. compound concentration. Compound was added to cells plated at 15% confluence in 96-well plates in RPMI-1640 media supplemented with 5% Fetal Bovine Serum and 2 mM L-Glutamine. After 4 days of incubation, ATP levels were measured using Cell Titer Glo (Promega). Data are presented as the average of 2 replicates ±SEM.
(§2) Selectivity may be measured by the half maximal inhibitory concentration (IC50), which, as used herein, is a measure of the effectiveness of a compound in killing cells. This quantitative measure indicates how much of a particular compound is needed to kill a particular cell population by half (e.g., as indicated by the amount of ATP). […] The IC50 can be determined by constructing a dose-response curve. The lower the IC50, the higher the potency, and the greater the difference between IC50 values for different cell lines (e.g., sensitive lines vs. insensitive lines, and sensitive lines vs. normal lines) the greater the selectivity. […]
(§3) With this information, we synthesized and tested a series of small molecules derived in conception from the oxalamide and chromone scaffold including N-acyl ureas, as shown in Tables 6-8. Each compound was tested in a 12-point dose-response study starting at 50 micromolar and decreasing in 3-fold increments to sub-nanomolar concentrations, in duplicate. Additionally, one or more additional cell line was tested in the same way.

[2] = test system: H2122; assay: Cell viability dose-response, H2122; assay type: cell-based, human; conditions: Homo sapiens
Summary of the method: (§4)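 Cells plated at 15% confluence in RPMI-1640 with 5% FBS and 2 mM L-glutamine, treated with compound in a 12-point, 3-fold dilution series from 50 micromolar, in duplicate. ATP measured by Cell Titer Glo after 4 days; IC50 taken from the dose-response curve.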

[3] = test system: H1819; assay: Cell viability dose-response, H1819; assay type: cell-based, human; conditions: Homo sapiens
Summary of the method: as §4

[4] = test system: H460; assay: Cell viability dose-response, H460; assay type: cell-based; conditions: Homo sapiens, NCI-H460
Experimental: as §1, §2, §3

[5] = test system: HBEC30KT; assay: Cell viability (ATP, Cell Titer Glo, 4 days), HBEC30KT; assay type: cell-based, human
[6] = test system: H1395; assay: Cell viability dose-response, H1395; assay type: cell-based; conditions: Homo sapiens, NCI-H1395
Experimental: as §1, §2, §3

[7] = test system: HCC44; assay: Cell viability dose-response, HCC44; assay type: cell-based, human; conditions: Homo sapiens
Summary of the method: (§5)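 Steps: seed cells to 15% confluence in RPMI-1640 supplemented with 5% fetal bovine serum and 2 mM glutamine; add compound across a concentration range; incubate 4 days; measure total ATP with CellTiter-Glo. IC50 is derived from the curve.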

[8] = test system: HCC95; assay: Cell viability dose-response, HCC95; assay type: cell-based; conditions: Homo sapiens
Experimental: as §1, §2, §3

[9] = test system: HCC4017; assay: Cell viability dose-response, HCC4017; assay type: cell-based, human
Summary of the method: as §5

[10] = test system: HCC366; assay: Cell viability dose-response, HCC366; assay type: cell-based; conditions: Homo sapiens
Experimental: as §1, §2, §3

[11] = test system: H2073; assay: Cell viability dose-response, H2073; assay type: cell-based, human; conditions: Homo sapiens
Summary of the method: as §5

[12] = test system: H2009; assay: Cell viability dose-response, H2009; assay type: cell-based, human; conditions: Homo sapiens, NCI-H2009
Summary of the method: as §5

[13] = test system: H1993; assay: Cell viability dose-response, H1993; assay type: cell-based; conditions: Homo sapiens, NCI-H1993
Experimental: as §1, §2, §3

[14] = Tables 3 and 4, read-out: IC50 (uM) vs indicated non-small cell lung cancer cell line H1155
[15] = NCI-H2122, Tables 3 and 4, read-out: IC50 (uM) vs indicated non-small cell lung cancer cell line H2122
[16] = NCI-H1819, Tables 3 and 4, read-out: IC50 (uM) vs indicated non-small cell lung cancer cell line H1819
[17] = Tables 3 and 4, read-out: IC50 (uM) vs indicated non-small cell lung cancer cell line H460
[18] = Tables 3 and 4, read-out: IC50 (uM) vs indicated non-small cell lung cancer cell line H1395
[19] = HCC44, Tables 3 and 4, read-out: IC50 (uM) vs indicated non-small cell lung cancer cell line HCC44
[20] = Tables 3 and 4, read-out: IC50 (uM) vs indicated non-small cell lung cancer cell line HCC95
[21] = Tables 3 and 4, read-out: IC50 (uM) vs indicated non-small cell lung cancer cell line HCC366
[22] = NCI-H2073, Tables 3 and 4, read-out: IC50 (uM) vs indicated non-small cell lung cancer cell line H2073
[23] = Tables 3 and 4, read-out: IC50 (uM) vs indicated non-small cell lung cancer cell line H2009
[24] = Tables 3 and 4, read-out: IC50 (uM) vs indicated non-small cell lung cancer cell line H1993
[25] = Homo sapiens, Tables 3 and 4, read-out: HBEC30KT IC50
[26] = Homo sapiens, HCC4017, Tables 3 and 4, read-out: IC50 (uM) vs indicated non-small cell lung cancer cell line HCC4017
[27] = 12-point dose-response starting at 50 micromolar, 3-fold increments, in duplicate, read-out: toxicity data, H1155
[28] = NCI-H2122, 12-point dose-response starting at 50 micromolar, 3-fold increments, in duplicate, read-out: toxicity data, H2122
[29] = NCI-H1819, 12-point dose-response starting at 50 micromolar, 3-fold increments, in duplicate, read-out: toxicity data, H1819
[30] = 12-point dose-response starting at 50 micromolar, 3-fold increments, in duplicate, read-out: toxicity data, H460
[31] = Homo sapiens, 12-point dose-response starting at 50 micromolar, 3-fold increments, in duplicate, read-out: toxicity data, HBEC30KT
[32] = 12-point dose-response starting at 50 micromolar, 3-fold increments, in duplicate, read-out: toxicity data, H1395
[33] = HCC44, 12-point dose-response starting at 50 micromolar, 3-fold increments, in duplicate, read-out: toxicity data, HCC44
[34] = 12-point dose-response starting at 50 micromolar, 3-fold increments, in duplicate, read-out: toxicity data, HCC95
[35] = Homo sapiens, HCC4017, 12-point dose-response starting at 50 micromolar, 3-fold increments, in duplicate, read-out: toxicity data, HCC4017
[36] = 12-point dose-response starting at 50 micromolar, 3-fold increments, in duplicate, read-out: toxicity data, HCC366
[37] = NCI-H2073, 12-point dose-response starting at 50 micromolar, 3-fold increments, in duplicate, read-out: toxicity data, H2073
[38] = 12-point dose-response starting at 50 micromolar, 3-fold increments, in duplicate, read-out: toxicity data, H2009
[39] = 12-point dose-response starting at 50 micromolar, 3-fold increments, in duplicate, read-out: toxicity data, H1993

| SMILES | IC50 [1, 14] [µM] | IC50 [2, 15] [µM] | IC50 [3, 16] [µM] | IC50 [4, 17] [µM] | IC50 [6, 18] [µM] | IC50 [7, 19] [µM] | IC50 [8, 20] [µM] | IC50 [10, 21] [µM] | IC50 [11, 22] [µM] | IC50 [12, 23] [µM] | IC50 [13, 24] [µM] | IC50 [5, 25] [µM] | IC50 [9, 26] [µM] | further results |
| --- | --- | --- | --- | --- | --- | --- | --- | --- | --- | --- | --- | --- | --- | --- |
| O=C(Nc1cccc(NC(=O)c2sc3ccccc3c2Cl)c1)c1cccc(Cl)c1 [SW023441] | 29 | 0.39 | 16.4 | 48 | 10.5 | 32 | 14 | 23 | 6.2 | 9.4 | 11 | – | – | IC50 ([5]; Tables 3 and 4, read-out: HBEC30KT IC50): 30 µM; IC50 ([9]; Tables 3 and 4, read-out: IC50 (uM) vs indicated non-small cell lung cancer cell line HCC4017): 18 µM |
| O=C(Nc1nc2ccccc2s1)c1cccnc1 [SW006981] | 95 | 0.26 | 50 | 180 | 51 | 63.7 | 110 | 85 | 12.5 | 325 | 21.5 | 272 | 76 | – |
| NC(=O)c1c(NC(=O)c2sc3ccccc3c2Cl)sc2c1CCCCC2 [SW155113] | 14.5 | 0.36 | 14 | 29 | 13.4 | 27 | 100 | 22.5 | 6 | 32 | 8.1 | 33 | 23 | – |
| COc1ccc2nc(NC(=O)c3ccc(OCc4ccccc4)cc3)sc2c1 [SW202773-1] | 23.6 | 0.0431 | 42.9 | 0.157 | 25.9 | 0.122 | 0.163 | 41.8 | 0.268 | 16.6 | 21.7 | 24.9 | 21.1 | – |
| COc1ccc2nc(NC(=O)c3ccc(N)cc3)sc2c1 [SW001286] | 25 | 0.048 | 24 | 0.4 | 35 | 3 | 2 | 35 | 0.3 | 22 | 27 | 130 | 35 | IC50 ([2]; NCI-H2122, Table 9, competitor, read-out: IC50 to H2122 cells): 0.04 µM |
| COc1ccc(C(=O)c2ccc(NC(=O)c3sc4ccccc4c3Cl)cc2)cc1 [SW202855-1] | 46.1 | 18.3 | 32 | 28.8 | 28.4 | 25.4 | 9.84 | 49 | 36.2 | 13.9 | 17.8 | 24.3 | 15.7 | – |
| COc1ccc(CCNC(=O)C(=O)Nc2ccc(Cl)cc2)cc1 [SW027951] | – | – | – | – | – | – | – | – | – | – | – | – | – | IC50 [1, 27]: 50 µM; IC50 [2, 28]: 0.15 µM; IC50 [3, 29]: ≥ 50 µM; IC50 [4, 30]: 1.34 µM; IC50 [5, 31]: 50 µM; IC50 [6, 32]: 50 µM; IC50 [7, 33]: ≥ 50 µM; IC50 [8, 34]: 0.09 µM; IC50 [9, 35]: ≥ 50 µM; IC50 [10, 36]: 50 µM; IC50 [11, 37]: ≥ 50 µM; IC50 [12, 38]: ≥ 50 µM; IC50 [13, 39]: 50 µM |
| COc1ccc(CCNC(=O)C(=O)Nc2ccc(C)c(C)c2)cc1 [SW027949] | – | – | – | – | – | – | – | – | – | – | – | – | – | IC50 [1, 27]: 50 µM; IC50 [2, 28]: 0.7 µM; IC50 [3, 29]: ≥ 50 µM; IC50 [4, 30]: 1.31 µM; IC50 [5, 31]: 41.5 µM; IC50 [6, 32]: 50 µM; IC50 [7, 33]: ≥ 50 µM; IC50 [8, 34]: 0.17 µM; IC50 [9, 35]: ≥ 50 µM; IC50 [10, 36]: 50 µM; IC50 [11, 37]: ≥ 50 µM; IC50 [12, 38]: ≥ 50 µM; IC50 [13, 39]: 50 µM |
| O=C(c1ccccc1)c1ccc(NC(=O)c2sc3ccccc3c2Cl)cc1 [SW025780] | 33 | 0.007 | 27 | 46 | 99 | 64 | 7.7 | 248 | 0.08 | 60 | 31 | 51 | 56 | – |
